{
  "source": "patent US6355619B1",
  "about": "“Peptide tumor cell growth inhibitors” (Board of Regents, The University of Texas System, priority 1996, dated 2002)",
  "key": {"[1]": {"target": "T1, C5a binding to human neutrophils (Homo sapiens, UniProt P21730)", "T1 construct": "endogenous in cells; host or cells: human blood neutrophils", "T1 sequence (P21730 whole entry)": "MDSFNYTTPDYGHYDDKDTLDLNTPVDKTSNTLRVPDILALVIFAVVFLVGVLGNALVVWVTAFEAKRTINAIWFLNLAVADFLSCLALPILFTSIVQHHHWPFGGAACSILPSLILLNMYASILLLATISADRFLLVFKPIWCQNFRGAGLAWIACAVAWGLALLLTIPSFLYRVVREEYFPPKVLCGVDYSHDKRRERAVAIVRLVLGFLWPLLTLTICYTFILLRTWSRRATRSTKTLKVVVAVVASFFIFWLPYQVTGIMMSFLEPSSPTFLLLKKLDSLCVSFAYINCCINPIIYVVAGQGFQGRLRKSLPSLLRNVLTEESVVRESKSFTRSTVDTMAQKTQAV", "experiment": "Binding of 125I-C5a to human neutrophils", "details": "100 μM peptide; 0.25 nM 125I-labeled C5a", "from_the_text": "To examine the specificity of Ac-RRWWCR-NH2 (SEQ ID NO:1) on ligand-receptor binding, the inventors tested whether the peptide reduced the binding of human ^125I-C5a or ^3H-leukotriene B4 to human neutrophils.\nRecombinant human fifth component of complement (C5a) (Sigma Chemical Co., St. Louis, Mo.) was radioiodinated enzymatically using Enzymobead (Bio Rad, Richmond, Calif.). Tritiated leukotriene B4 was purchased from Du Pont Co., Wilmington, Del. Binding assays for C5a and leukotriene B4 were performed as described for IL-8 binding in Example I, except that the buffers used were PBS containing 1 mM CaCl2, 0.5 mM MgCl2, 0.5% BSA, and HBSS containing 0.1% ovulabumin and 10 mM HEPES (pH7.3), respectively, as previously described (Braunwalder et al., 1992; Sherman et al., 1988). The radioactivity was measured with liquid scintillation counter for the leukotriene B4 assay. The binding of both ligands were saturable and inhibited by the non-labeled agonists in dose dependent manners."}, "[2]": {"test_system": "IL-8-induced neutrophil chemotaxis", "experiment": "Neutrophil chemotaxis stimulated by IL-8 (leading front, Boyden chamber)", "format": "cell-based, human", "protocol": "FIG. 7. The Effect of Ac-RRWWCR-NH2 (SEQ ID NO:1) on Neutrophil Chemotaxis. Chemotaxis was performed in the presence of increasing concentration of Ac-RRWWCR-NH2 (SEQ ID NO:1) in both upper and lower chamber. Stimulants added to lower chamber were 10 nM IL-8 (●), 10 nM fMLP (▪), or media alone (◯) as control. Analysis of variance was used for multiple comparison.\nChemotaxis was performed using the leading front method as described by Zigmond and Hirsh (1973). IL-8 or controls were placed in the lower well of a Boyden chamber. A five micron pore size, 100 μm. thick cellulose nitrate filter (Sartorius Filter,. Inc., San Francisco, Calif.) was placed on the surface and the chamber was then assembled. A 200 μl aliquot of the neutrophil preparation (1×10^6 cells/ml) in RPMI-1640 media containing 1% BSA was added to the top of the filter and incubated at 37° C. for 30 min. The filter was then fixed, stained and mounted on a glass microscope slide. The leading front was determined by the position of the leading two cells. The distance that the leading two cells had moved through the filter was measured for six fields on each filter. The measurements were made with four filters for each set of conditions."}, "[3]": {"details": "Hs 294T culture, 100 μM peptide", "method": "Analysis for the breakdown of Antileukinate in the culture of Hs 294T cells. A total concentration of tritium labeled and unlabeled Antileukinate of 100 μM, was added to the culture of Hs 294T cells. Aliquots of medium were removed at different times and chromatographed on an HPLC Bondapak C18 reversed phase column. The peptides were eluted using a gradient from 0.1% TFA to 80% acetonitrile in 0.1% TFA. One milliliter fractions were collected and measured for their radioactivity using a liquid scintillation counter. The chromatographs show the elution volume of the radioactivity at different times after addition to the cells.\nHs 294T and Hep G2 cells, 2×10^4 cell/well, were cultured in 24 well tissue culture plates for 24 hr. Then the culture media were replaced with media containing tritiated Antileukinate, 0.2 μCi, mixed with 100 μM unlabeled peptide in each well. The cells were then cultured for the indicated periods. The supernatants were collected and stored at −70° C. until use. The breakdown of Antileukinate during the cell culture was analyzed on high performance liquid chromatography (HPLC) using an analytical C18 reversed phase column (Waters Co., New Bedford, Mass.). […] One milliliter fractions were collected and measured for their radioactivity content using a liquid scintillation counter."}},
  "data": [
    {"substance": "RRWWCR [Ac-RRWWCR-NH2]", "values": [
      {"measurement": "effect on binding of C5a to neutrophils", "setting": "[1]", "value": "did not affect the binding"},
      {"measurement": "peptide concentration significantly suppressing chemotaxis", "setting": "[2]; chemotaxis induced by 10 nM IL-8", "value": 50, "unit": "lM"},
      {"measurement": "peptide concentration significantly inhibiting chemotaxis", "setting": "[2]; neutrophils stimulated with 10 nM IL-8", "value": 50, "unit": "µM"},
      {"measurement": "time within which the peptide is substantially eliminated from the culture", "setting": "[3]", "value": "≤ 24", "unit": "h"},
      {"measurement": "decrease of the major radioactivity peak (intact peptide)", "setting": "[3]; after 24 hr", "value": "more than 85%"}
    ]}
  ]
}
